From PubChem BioAssay (NCI)
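96-well plates; 48 h exposure; 5 concentrations. Endpoints by linear interpolation between flanking doses. Not reached: highest tested concentration assigned. TGI: total growth inhibition.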

What was measured:
Experiment in all cases: inhibition of tumour cell growth, NCI panel, 48 h
786-0 renal = tested on: 786-0 renal
A549 NSCLC = tested on: A549 NSCLC
EKVX NSCLC = tested on: EKVX NSCLC
HCC-2998 colon = tested on: HCC-2998 colon
MDA-MB-231 breast = tested on: MDA-MB-231 breast
NCI-H23 lung = tested on: NCI-H23 lung
OVCAR-3 ovarian = tested on: OVCAR-3 ovarian
OVCAR-4 ovarian = tested on: OVCAR-4 ovarian
OVCAR-8 ovarian = tested on: OVCAR-8 ovarian
SF-539 CNS = tested on: SF-539 CNS

Row | Compound | TGI (786-0 renal) [µM] | TGI (A549 NSCLC) [µM] | TGI (EKVX NSCLC) [µM] | TGI (HCC-2998 colon) [µM] | TGI (MDA-MB-231 breast) [µM] | TGI (NCI-H23 lung) [µM] | TGI (OVCAR-3 ovarian) [µM] | TGI (OVCAR-4 ovarian) [µM] | TGI (OVCAR-8 ovarian) [µM] | TGI (SF-539 CNS) [µM]
1 | COC(=O)c1ccccc1/C=C1\Cc2ccc3c(c2C1=O)CCCC3 | > 100 | > 100 | > 100 | > 100 | > 100 | > 100 | > 100 | > 100 | > 100 | > 100
2 | CCOC(=O)[C@@]1(C)CC(O)C(=O)N1C (stereo not given in full) | > 100 | > 100 | > 100 | > 100 | > 100 | > 100 | > 100 | > 100 | > 100 | > 100
3 | CCCCc1ccc(Nc2nc(Cl)c3c(ncn3C3CC(Oc4ccc(C)cc4)C(COc4ccc(C)cc4)O3)n2)cc1 (stereo not given) | > 100 | > 100 | > 100 | > 100 | > 100 | > 100 | > 100 | > 100 | > 100 | > 100
4 | S=c1nc(N/N=C/c2cccs2)c2cn[nH]c2[nH]1 | > 100 | 14.5 | > 100 | 27.8 | > 100 | 66.4 | 34.1 | > 100 | > 100 | > 100
5 | CCN(CC)CC1CN=C(N)O1 (stereo not given) | > 100 | > 100 | > 100 | > 100 | > 100 | > 100 | > 100 | > 100 | > 100 | > 100
6 | Cc1cc(S(=O)(=O)Nc2nncn2-c2ccc(Cl)cc2)c(S)cc1Cl | > 10 | > 10 | > 10 | > 10 | > 10 | > 10 | > 10 | > 10 | > 10 | > 10
7 | Cc1ccc(S(=O)(=O)N/N=C2\CC3CC4CCC2C4C3)cc1 (stereo not given) | > 100 | > 100 | > 100 | > 100 | > 100 | > 100 | > 100 | > 100 | > 100 | > 100
8 | CCCCCCCCP(=O)(O)OP(=O)(O)OCC1OC(n2ccc(N)nc2=O)C(O)C1O (stereo not given) | > 100 | > 100 | > 100 | > 100 | > 100 | > 100 | > 100 | > 100 | > 100 | > 100
9 | CC1SC2(CCCCC2)N(NC(=O)CSc2nc3ccc(Cl)cc3c(=O)n2-c2ccccc2)C1=O (stereo not given) | 34.9 | > 100 | > 100 | 41.8 | 35 | 57.4 | 32.8 | > 100 | 59.1 | 33
10 | Cc1ccc(-c2cc[n+]3c(n2)oc2ccccc23)cc1 | 29.5 | > 100 | 56.2 | > 100 | > 100 | > 100 | 40.9 | 48.8 | 41.2 | 58.6
11 | CN(C)CCOc1ccc(-c2c(Oc3ccccc3)c(=O)oc3ccccc23)cc1 | 20.5 | 15.3 | 27.5 | 20.8 | 18.8 | 28.6 | 26 | 59 | 29.6 | 27.9
12 | CCOC1NC(=O)Oc2cc3ccccc3cc21 (stereo not given) | > 100 | > 100 | > 100 | > 100 | > 100 | > 100 | > 100 | > 100 | > 100 | > 100
13 | CCCCc1ccc(Nc2nc(Cl)c3ccn(C4CC(Oc5ccc(C)cc5)C(COc5ccc(C)cc5)O4)c3n2)cc1 (stereo not given) | > 46.4 | > 46.4 | 38 | > 46.4 | > 46.4 | 30.8 | > 100 | > 31.6 | > 46.4 | > 46.4
14 | CCOC(=O)/C=C(\C(=O)OCC)n1cc(Cl)c(=O)n(CC(=O)OCC)c1=O | 3.14 | 45.8 | 30.9 | 37.5 | 30.3 | 42.6 | 8.69 | 41.2 | 8.59 | 28.5
15 | CN(CCCNC(=O)c1nn(C)c2c1Cc1ccccc1-2)CCCNC(=O)c1nn(C)c2c1Cc1ccccc1-2 | 24.5 | 33.3 | 39.2 | 23.5 | 36.1 | 47.3 | 38 | 32.5 | 46 | 33.9
16 | Cc1nc2ccc(F)cc2c(Cl)c1CCCl | > 100 | > 100 | > 100 | 84.9 | 73.8 | > 100 | > 100 | > 100 | > 100 | > 100
17 | C=CC(=O)N1C/C(=C\c2ccc([N+](=O)[O-])cc2)C(=O)/C(=C/c2ccc([N+](=O)[O-])cc2)C1 | 0.249 | 1.72 | 0.829 | 1.21 | 0.278 | 0.791 | 1.08 | 1.33 | 0.727 | 0.151
